Assay [1] deals with T1, BRD4-1 (Homo sapiens, UniProt O60885).
T1 construct: made in house; host or cells: Escherichia coli
Briefly: HTRF (TR-FRET) assay, BRD4-1 binding to acetylated histone H4 peptide. The note with it: 60 nM BRD4-1, 200 nM H4 peptide, 60 minutes at 25° C.; geometric mean of a minimum of four determinations; read-out: HTRF BRD4-1 (IC50). The procedure:
(§1) Binding of the two tandem bromodomains, BRD4-1 and BRD4-2, to an acetylated histone H4 peptide was measured using a homogeneous time resolved fluorescence resonance energy transfer (TR-FRET) assay. […] BRD4-1 and BRD4-2 were expressed and purified from Escherichia coli as N-terminal His6-tagged proteins. An XL665 labeled anti-His antibody (Cisbio) was used to specifically bind BRD4 and a cryptate labeled streptavidin protein was used because it specifically recognized the biotinylated H4 peptide. […] After an assay reaction time of 60 minutes at 25° C., binding was measured with 2 nM crytptate labeled streptavidin and 10 nM anti-His-XL665 antibody. TR-FRET signal was detected on an Envision plate reader (Ex: 320 nm; Em: 615/665 nm; 100 us delay and 200 μs read window). […] All IC50 values represent geometric mean values of a minimum of four determinations.
(In general: In TR-FRET formats the signal depends on donor and acceptor labels being close together.)

For a further assay, the target named is T2, BRD4-2 (Homo sapiens, UniProt O60885).
T2 construct: made in house; host or cells: Escherichia coli
Kind of assay: HTRF (TR-FRET) assay, BRD4-2 binding to acetylated histone H4 peptide. The note with it: 120 nM BRD4-2, 200 nM H4 peptide, 60 minutes at 25° C.; geometric mean of a minimum of four determinations; read-out: HTRF BRD4-2 (IC50). On the procedure: as §1

Assay [2] addresses T1, BRD4-1. Briefly: Alpha assay, BRD4-1 binding to acetylated histone H4 peptide. The note with it: 15 nM BRD4-1, 200 nM H4 peptide, 60 minutes at 25° C.; geometric mean of a minimum of four determinations; read-out: Alpha Assay (IC50). On the procedure: Binding of the bromodomain BRD4-I to an acetylated histone H4 peptide was measured using a bead-based Amplified Luminescent Proximity Homogeneous Assay (ALPHA). […] BRD4-I was expressed and purified from Escherichia coli as an N-terminal His6-tagged protein. Nickel-Chelate ALPHA acceptor beads (Perkin Elmer) were used to specifically bind BRD4-1 and ALPHA streptavidin donor beads (Perkin Elmer) were used because they specifically recognized the biotinylated H4 peptide. […] Assays were performed in 50 mM Hepes (pH 7.5), 150 mM NaCl, 0.1 mg/ml BSA, 0.01% (v/v) Brij, 0.5% (v/v) DMSO, 200 nM H4 peptide and 15 nM of BRD4-1 protein. After an assay reaction time of 60 minutes at 25° C., binding was measured with 20 μg/ml streptavidin donor beads and 20 μg/ml nickle-chelate acceptor beads. ALPHA signal was detected on an Envision plate reader (Ex: 320 nm; Em: 570 nm; Ex time: 180 ms). […] All IC50 values represent geometric mean values of a minimum of four determinations.

As usually defined, the IC50 is the concentration that gives 50% inhibition. `Cc1noc(C)c1-c1cc(S(=O)(=O)NC2CCCC2)c2nc(NCC3CC3)[nH]c2c1` [Compound 1020-1, N-Cyclopentyl-2-(cyclopropylmethylamino)-6-(3,5-dimethylisoxazol-4-yl)-1H-benzo[d]imidazole-4-sulfonamide]: the IC50 on BRD4-1 [1] turned out to be 201 nM; on BRD4-2, 97.6 nM.

`CSc1nc2c(S(=O)(=O)NC3CCCC3)cc(-c3c(C)noc3C)cc2[nH]1` [Compound 1020-4, N-Cyclopentyl-6-(3,5-dimethylisoxazol-4-yl)-2-(methylthio)-1H-benzo[d]imidazole-4-sulfonamide]: the IC50 on BRD4-1 [1] was found to be 337 nM; at BRD4-2 it was 230 nM.

Turning to `Cc1noc(C)c1-c1cc(S(=O)(=O)NC2CCCC2)c2nc([S+](C)[O-])[nH]c2c1` (stereo not shown) [Compound 1020-5, N-Cyclopentyl-6-(3,5-dimethylisoxazol-4-yl)-2-(methylsulfinyl)-1H-benzo[d]imidazole-4-sulfonamide], the IC50 worked out at 616 nM at BRD4-1 [1] and 357 nM on BRD4-2.

For the compound `Cc1cnn(C)c1-c1cc(-c2c(C)noc2C)cc2nc(C3CC3)[nH]c12` [Compound 1020-12, 4-(2-Cyclopropyl-7-(1,4-dimethyl-1H-pyrazol-5-yl)-1H-benzo[d]imidazol-5-yl)-3,5-dimethylisoxazole], the values for the IC50 on BRD4-1 [1], on BRD4-2 and at BRD4-1 [2] were 138 nM, 69.2 nM and 46.2 nM, respectively.

Consider `Cc1noc(C)c1-c1cc(-c2cccnc2-c2ccccc2)c2nc(C3CC3)[nH]c2c1` [Compound 1020-19, 4-(2-Cyclopropyl-4-(2-phenylpyridin-3-yl)-1H-benzo[d]imidazol-6-yl)-3,5-dimethylisoxazole], for which the IC50 at BRD4-1 [1] amounted to 134 nM; on BRD4-2, 172 nM; at BRD4-1 [2] it was 28 nM.

As for `CC/C=C(\CC)c1cc(-c2c(C)noc2C)cc2nc(C3CC3)[nH]c12` [Compound 1020-28, (E)-4-(2-Cyclopropyl-4-(hex-3-en-3-yl)-1H-benzo[d]imidazol-6-yl)-3,5-dimethylisoxazole], the IC50 at BRD4-1 [1] turned out to be 71.8 nM; at BRD4-2 it was 65.5 nM; on BRD4-1 [2], 18.1 nM.

As for `Cc1noc(C)c1-c1cc(C(C)c2ccc(F)cc2)c2[nH]c(C3CC3)nc2c1` (stereo not shown) [Compound 1020-44, 4-(2-Cyclopropyl-4-(1-(4-fluorophenyl)ethyl)-1H-benzo[d]imidazol-6-yl)-3,5-dimethylisoxazole], the IC50 stood at 139 nM at BRD4-1 [1], 111 nM at BRD4-2 and 22 nM at BRD4-1 [2].

With `Cc1noc(C)c1-c1cc(NC2CCCC2)c2nc(C3CC3)[nH]c2c1` [Compound 1020-50, N-Cyclopentyl-2-cyclopropyl-6-(3,5-dimethylisoxazol-4-yl)-1H-benzo[d]imidazol-4-amine], the IC50 was determined as 299 nM on BRD4-1 [1], 318 nM on BRD4-2 and 125 nM on BRD4-1 [2].

For the compound `Cc1ccnc(C)c1-c1cc(-c2c(C)noc2C)cc2nc(C3CC3)[nH]c12` [Compound 1020-57, 4-(2-Cyclopropyl-7-(2,4-dimethylpyridin-3-yl)-1H-benzo[d]imidazol-5-yl)-3,5-dimethylisoxazole], the IC50 at BRD4-1 [1] was 109 nM; at BRD4-2 it was 54.4 nM; on BRD4-1 [2], 22.6 nM.

For `Cc1n[nH]c(C)c1-c1cc(-c2c(C)noc2C)cc2nc(C3CC3)n(C)c12` [Compound 1020-72, 4-(2-cyclopropyl-7-(3,5-dimethyl-1H-pyrazol-4-yl)-1-methyl-1H-benzo[d]imidazol-5-yl)-3,5-dimethylisoxazole], the values for the IC50 at BRD4-1 [1], on BRD4-2 and on BRD4-1 [2] were 101 nM, 69.1 nM and 12.3 nM, respectively.

Regarding `Cc1ccc2ncccc2c1-c1cc(-c2c(C)noc2C)cc2nc(C3CC3)n(C)c12` [Compound 1020-74, 4-(2-Cyclopropyl-1-methyl-7-(6-methylquinolin-5-yl)-1H-benzo[d]imidazol-5-yl)-3,5-dimethylisoxazole], the IC50 worked out at 97.1 nM on BRD4-1 [1], 112 nM on BRD4-2 and 18.9 nM at BRD4-1 [2].

For the compound `Cc1nc2cc(-c3c(C)noc3C)cc(-c3c(C)n[nH]c3C)c2[nH]1` [Compound 1020-77, 4-(7-(3,5-Dimethyl-1H-pyrazol-4-yl)-2-methyl-1H-benzo[d]imidazol-5-yl)-3,5-dimethylisoxazole], the IC50 is 244 nM on BRD4-1 [1], 64.8 nM on BRD4-2 and 42.7 nM on BRD4-1 [2].

On to `Cc1n[nH]c(C)c1-c1cc(-c2c(C)noc2C)cc2nc(C3CC3(F)F)[nH]c12` (stereo not shown) [Compound 1020-78, 4-(2-(2,2-Difluorocyclopropyl)-7-(3,5-dimethyl-1H-pyrazol-4-yl)-1H-benzo[d]imidazol-5-yl)-3,5-dimethylisoxazole], for which the IC50 on BRD4-1 [1] was 161 nM; on BRD4-2, 94.1 nM; on BRD4-1 [2], 25.1 nM.

Consider `Cc1n[nH]c(C)c1-c1cc(-c2c(C)noc2C)cc2[nH]c(NCC3CC3)nc12` [Compound 1020-79, N-(Cyclopropylmethyl)-4-(3,5-dimethyl-1H-pyrazol-4-yl)-6-(3,5-dimethylisoxazol-4-yl)-1H-benzo[d]imidazol-2-amine], for which the IC50 on BRD4-1 [1] amounted to 161 nM; on BRD4-2, 87.2 nM; on BRD4-1 [2], 33.6 nM.

In the case of `Cc1n[nH]c(C)c1-c1cc(-c2c(C)noc2C)cc2[nH]c(NC3CC3)nc12` [Compound 1020-81, N-Cyclopropyl-4-(3,5-dimethyl-1H-pyrazol-4-yl)-6-(3,5-dimethylisoxazol-4-yl)-1H-benzo[d]imidazol-2-amine], the IC50 amounted to 169 nM at BRD4-1 [1], 119 nM at BRD4-2 and 50.7 nM on BRD4-1 [2].

For `Cc1ccnc(C)c1-c1cc(-c2c(C)noc2C)cc2[nH]cnc12` [Compound 1020-84, 4-(4-(2,4-Dimethylpyridin-3-yl)-1H-benzo[d]imidazol-6-yl)-3,5-dimethylisoxazole], the IC50 stood at 481 nM on BRD4-1 [1], 234 nM on BRD4-2 and 277 nM on BRD4-1 [2].

In the case of `Cc1ccc2ncccc2c1-c1cc(-c2c(C)noc2C)cc2[nH]c(-c3cnn(C)c3)nc12` [Compound 1020-88, 3,5-Dimethyl-4-(2-(1-methyl-1H-pyrazol-4-yl)-4-(6-methylquinolin-5-yl)-1H-benzo[d]imidazol-6-yl)isoxazole], the figures for the IC50 at BRD4-1 [1], at BRD4-2 and on BRD4-1 [2] were 104 nM, 131 nM and 15.9 nM, respectively.

As to `Cc1ccc2ncccc2c1-c1cc(-c2c(C)noc2C)cc2[nH]c(C(O)CCO)nc12` (stereo not shown) [Compound 1020-89, 1-(6-(3,5-dimethylisoxazol-4-yl)-4-(6-methylquinolin-5-yl)-1H-benzo[d]imidazol-2-yl)propane-1,3-diol], the IC50 turned out to be 379 nM at BRD4-1 [1], 151 nM on BRD4-2 and 130 nM on BRD4-1 [2].

Regarding `COc1nc2c(-c3c(C)ccc4ncccc34)cc(-c3c(C)noc3C)cc2[nH]1` [Compound 1020-90, 4-(2-methoxy-4-(6-methylquinolin-5-yl)-1H-benzo[d]imidazol-6-yl)-3,5-dimethylisoxazole], the values for the IC50 on BRD4-1 [1], at BRD4-2 and at BRD4-1 [2] were 110 nM, 121 nM and 29.9 nM, respectively.

Consider `Cc1ccc2ncccc2c1-c1cc(-c2c(C)noc2C)cc2[nH]c(C(F)(F)F)nc12` [Compound 1020-92, 3,5-Dimethyl-4-(4-(6-methylquinolin-5-yl)-2-(trifluoromethyl)-1H-benzo[d]imidazol-6-yl)isoxazole], for which the IC50 at BRD4-1 [1] is 133 nM; at BRD4-2, 102 nM; on BRD4-1 [2], 37.7 nM.

With `Cc1n[nH]c(C)c1-c1cc(-c2c(C)noc2C)cc2nc(N)[nH]c12` [Compound 1020-96, 4-(3,5-Dimethyl-1H-pyrazol-4-yl)-6-(3,5-dimethylisoxazol-4-yl)-1H-benzo[d]imidazol-2-amine], the IC50 was 276 nM at BRD4-1 [1], 96.9 nM at BRD4-2 and 53.7 nM at BRD4-1 [2].

`Cc1noc(C)c1-c1cc(S(=O)(=O)NC2CCCC2)c2nc(Cc3ccccc3)[nH]c2c1` [Compound 1020-141, 2-Benzyl-N-cyclopentyl-6-(3,5-dimethylisoxazol-4-yl)-1H-benzo[d]imidazole-4-sulfonamide]: the IC50 on BRD4-1 [1] turned out to be 704 nM; on BRD4-2, 111 nM.

On to `Cc1noc(C)c1-c1cc(S(=O)(=O)NC2CCCC2)c2nc(NCC(F)(F)F)[nH]c2c1` [Compound 1020-148, N-Cyclopentyl-6-(3,5-dimethylisoxazol-4-yl)-2-(2,2,2-trifluoroethylamino)-1H-benzo[d]imidazole-4-sulfonamide], for which the figures for the IC50 at BRD4-1 [1] and on BRD4-2 were 186 nM and 180 nM, respectively.
